Test results published in the NIST ThermoML archive (doi:10.1021/je7001623).

Details: 101.33 kPa, Liquid; for mass density: Vibrating tube method; for viscosity: surface light scattering

CC(C)CCCCCCCOC(=O)c1ccccc1C(=O)OCCCCCCCC(C)C
Details | mass density [kg/m3] | viscosity [mPa·s]
273.14 K | 980.74 | –
278.15 K | 977.13 | –
283.15 K | 973.51 | 265.6
288.15 K | 969.94 | 177.4
293.15 K | 966.43 | 123.8
298.15 K | – | 88.44
298.16 K | 962.9 | –
303.15 K | – | 64.84
303.16 K | 959.36 | –
308.15 K | – | 48.98
308.16 K | 955.81 | –
313.15 K | – | 38.01
313.16 K | 952.27 | –
318.16 K | 948.73 | –
323.16 K | 945.19 | –
328.16 K | 941.65 | –
333.16 K | 938.12 | –
338.16 K | 934.6 | –
348.15 K | 927.54 | –
353.15 K | 924.02 | –
358.15 K | 920.5 | –
363.15 K | 916.95 | –
